The subject of one series is ulcers of the duodenum. Nature of the series: Anti-ulcer activity (ulcers of the duodenum induced by 4-methylhistamine and carbachol in guinea pigs). In kind it is in vivo, guinea pig. As to conditions: i.g.; for ED50: Cavia porcellus, po, read-out: Anti-ulcer ED 50. The protocol: Before the beginning of the testing a group of 10 guinea pigs, body weight 280 to 320 g, of the same sex receives no food for 24 hours, but receives water ad libitum. Various doses of the test substance or of the appropriate vehicle (control) are administered intragastrically. The test is repeated on different days with other groups of guinea pigs in order to avoid the influence of daily variations.

Series [1] concerns acid secretion caused by 4-methylhistamine dihydrochloride. Nature of the series: Heidenhain test (gastric pouch dogs, inhibition of 4-methylhistamine-stimulated acid secretion). The series is classed as in vivo, dog. As to conditions: 50% inhibition of acid secretion caused by 4-methylhistamine dihydrochloride infusion; for ED50: Canis lupus familiaris, po, read-out: Heidenhain test ED 50. The protocol: The two experimental procedures described hereinafter were used to determine the gastric acid secretion-inhibiting activity: Heidenhain test A part of the stomach fundus of female and male dogs is separated from the remaining stomach in the form of a pouch according to the […] technique [described by Rudick et al. in J. Surgical Research 7, 383-398 (1967)]. In the pouch there is fitted a steel cannula which is conducted externally through the abdominal wall. The secretion experiments are commenced after about 6 weeks. Before each experiment the animals receive no food for 18 hours, but receive water ad libitum. They are conscious during the experiment. A saphenous vein is cannulated for an infusion of 4-methylhistamine dihydrochloride, a selective stimulator of the histamine H2 -receptors. An appropriate infusion rate of the 4-methylhistamine dihydrochloride ([…], intravenously) is ascertained for each animal in preliminary experiments. During the entire main experiment the gastric secretion is stimulated by the infusion of 4-methylhistamine dihydrochloride, and 15 minute fractions of the gastric juice are collected continuously. As soon as volume and pH of these fractions show constant values, the test substances are administered orally. The ED 50 is defined as that dosage of test substance which brings about a 50% inhibition of the acid secretion caused by 4-methylhistamine dihydrochloride in the treated animals compared with the controls.

For a further series, the system named is gastric acid secretion. Nature of the series: Shay test (pylorus-ligated rats, gastric acid secretion-inhibiting activity). In kind it is in vivo, rat. The conditions noted are these: female rats, i.d.; for ED50: Rattus norvegicus, 4 h. The protocol: The two experimental procedures described hereinafter were used to determine the gastric acid secretion-inhibiting activity: Shay test The pylorus of female rats, which had received no food for 24 hours but which had received water ad libitum, is ligatured under slight ether narcosis in accordance with Shay et al. [Gastroenterology 5, 43 (1945)]. Immediately thereafter the substances to be tested are administered intraduodenally to the animals. Four (4) hours later the animals are killed. The volume and the acidity of their gastric juice are determined and the values obtained are compared with those of control animals which were treated similarly, but had received no test substance. The ED 50 is defined as the dosage of test substance which brings about a 50% reduction of volume or acidity of the gastric juice in the treated animals compared with the control animals.

Series [2] can be described thus: Preliminary toxicity in the mouse. As to conditions: in vivo, po, read-out: Prel. tox mouse. The procedure: Representative compounds of formula I of the invention were tested for their gastric acid secretion-inhibiting activity, for their anti-ulcer activity, as well as for their toxicity.
In Table I, which follows, the names of the compounds tested as well as the results of the testing for their gastric secretion-inhibiting activity, for their anti-ulcer activity and for their toxicity are given.

The mark [3] stands for this setting: 50% reduction of acidity of gastric juice, read-out: Shay test ED 50 Acid.
Where [4] appears, read: 50% reduction of volume of gastric juice, read-out: Shay test ED 50 Vol.

Each structure is given as a SMILES string. Structures can show the parent of a compound that is named as a salt. Where two headings read alike, the source gives them in different places.

`Cc1ccc(CSc2nc3cc4c(cc3[nH]2)CCC4)nc1.Cl.Cl` [1,5,6,7-tetrahydro-2-[[(5-methyl-2-pyridyl)methyl]thio]indeno(5,6-d)imidazole dihydrochloride]: the ED50 with ulcers of the duodenum is 34 mg/kg; in series [1], 3.6 mg/kg; in the series with gastric acid secretion (setting [3]), 28 mg/kg; in the series on gastric acid secretion (setting [4]), 50 mg/kg. Besides, the LD50 in series [2] is 1250 mg/kg.
The like results for `CC1(C)C(=O)C(C)(C)c2cc3[nH]c(SCc4ccccn4)nc3cc21` [5,7-dihydro-5,5,7,7-tetramethyl-2-[(2-pyridylmethyl)thio]indeno(5,6-d)imidazol-6(1H)-one] were, in that order, 32 mg/kg, 5.5 mg/kg, 9 mg/kg, 20 mg/kg and 2500 mg/kg.
In the same order, the values of `c1ccc(CSc2nc3cc4c(cc3[nH]2)OCO4)nc1` [6-[(2-Pyridylmethyl)thio]-5H-1,3-dioxolo(4,5-f)-benzimidazole.2HCl] are 17 mg/kg, 2.6 mg/kg, 29 mg/kg, 35 mg/kg and 1250 mg/kg.
For `Cc1ccc(CSc2nc3cc4c(cc3[nH]2)OCO4)nc1` [6-[[(5-Methyl-2-pyridyl)-methyl]thio]-5H--1,3-dioxolo-(4,5-f)benzimidazole dihydrochloride], the “Anti-ulcer ED 50” value in the series with ulcers of the duodenum (dihydrochloride) was 25 mg/kg. The “Heidenhain test ED 50” value in series [1] (p.o., dihydrochloride) was 2.1 mg/kg. The “Shay test ED 50 Acid” value in the series on gastric acid secretion (4 hours, 50% reduction of acidity of gastric juice, dihydrochloride, 240 min) was 65 mg/kg. The “Shay test ED 50 Vol” value with gastric acid secretion (4 hours, 50% reduction of volume of gastric juice, dihydrochloride, 240 min) turned out to be 75 mg/kg.
With `Cc1ccc(C[S+]([O-])c2nc3cc4c(cc3[nH]2)OCO4)nc1` (stereo not shown) [6-[[(5-methyl-2-pyridyl)methyl]sulfinyl]-5H-1,3-dioxolo(4,5-f)-benzimidazole], the ED50 is 14 mg/kg with ulcers of the duodenum, 2.3 mg/kg in series [1], 28 mg/kg in the series on gastric acid secretion (setting [3]) and 65 mg/kg in the series on gastric acid secretion (setting [4]). Besides, in series [2], the LD50 was found to be 5000 mg/kg.
With `Cc1ccc(CSc2nc3cc4c(cc3[nH]2)OCO4)nc1` [6-[[(5-methyl-2-pyridyl)methyl]thio]-5H-1,3-dioxolo(4,5-f)benzimidazole], the ED50 with ulcers of the duodenum was determined as 18 mg/kg; in series [1] it was 1.8 mg/kg; in the series on gastric acid secretion (setting [3]), 100 mg/kg; in the series with gastric acid secretion (setting [4]), 100 mg/kg.

Source of the values: patent US4599347A, “Tetrahydro-naphth (2.3-d) imidazole derivatives” (Hoffmann-La Roche Inc., priority 1980, dated 1986).
